Experimental findings from publication PMC12459184, “Design, synthesis, and bioevaluation of pyrazole-containing tubulin polymerisation inhibitors based on conformational constraint strategy” (Journal of Enzyme Inhibition and Medicinal Chemistry, 2025) are described below.

What is called IC50 is the concentration needed to halve the response being measured. Broadly, the viability is the share of living cells, or the viability signal relative to a control.

The subject of assay [1] is human umbilical vein endothelial cells (HUVEC). The assay can be described thus: MTT toxicity assay, normal cells HUVEC. The format is cell-based. As to conditions: for IC50: Homo sapiens, HUVEC, read-out: IC50 (μM) ± SD HUVEC; for SI-H: SI-H = IC50 (HUVEC)/IC50 (PC-3). The protocol: The toxicity of compounds 4k and 5a was also tested by using human umbilical vein endothelial cells (HUVEC) and human liver cells (L02).
Cells grown in logarithmic phase were harvested and seeded onto 96-well cell plates at a density of 4 ∼ 5 × 10^3 cells per well (various from cell type) and were cultured for 24 h. Different concentrations of compounds were added into the wells, and the cells were cultured for another 72 h. The medium was removed, then 20 μL of MTT (5 mg/mL in PBS) was added to each well and the cells were incubated for 4 h. 150 μL of DMSO was added to each well to dissolve the formazan, and the absorbance at 490 nm of each well was measured by a microplate reader. IC50 values were calculated by SPSS software.
A general note: Tetrazolium dyes change colour on reduction, which living cells bring about.

The test system of assay [2] is PC-3 cells. Description: Cell cycle analysis by flow cytometry. The format is cell-based, human. As to conditions: 24 h, vehicle 15%. The protocol: The G2/M phase of cell cycle involves mass physiological activities of microtubules, and tubulin polymerisation inhibitors could arrest cell cycle in G2/M phase by inhibiting microtubule polymerisation.
PC-3 cells in logarithmic phase were harvested and seeded onto 6-well cell plates at a density of 2.5 × 10^5 cells per well, and were cultured for 24 h. […] The cells were digested using trypsin and the suspended cells were harvested. Then the cells were washed with PBS and fixed in 75% ice-cold ethanol at 4 °C overnight. The fixed cells were harvested by centrifugation and washed with PBS, resuspended in 535 μL buffer containing 10 μL RNase (50 ×) and 25 μL PI (20 ×). After incubation at 37 °C in the dark for 30 min, the samples were filtered by nylon screen and detected by FACScan flow cytometry (BectoneDickinson, Franklin Lakes, NJ, USA).

Assay [3] concerns Cyclin B1. The assay can be described thus: Western blot assay, Cyclin B1. Format: cell-based, human. To be noted: PC-3 cells, at the concentrations of 20 and 40 nM. The protocol: Additionally, western blot assay was employed to measure the expression level of cell cycle-related proteins cyclin-dependent kinase 1 (CDK1) and Cyclin B1.
(§1) PC-3 cells in logarithmic phase were harvested and seeded onto culture plates, and were cultured for 24 h. […] The proteins of PC-3 cells were extracted by RIPA buffer containing 1% PMSF (Beyotime Biotechnology, China). The protein concentration was measured by BCA Assay Kit (SEVEN Biotech, China). Equal amounts and concentration of protein were diluted in 5× loading buffer (Beyotime, China) and denatured by boiled for 5 min. Protein samples were separated on 12.5% SDS-PAGE gels (EpiZyme, China) and transferred to PVDF membranes (Millipore Corporation, Billerica, MA, USA). The membranes were blocked in QuickBlockTM Block Buffer (SEVEN Biotech, China) for 10 min at room temperature. Then the membranes were incubated with the primary antibodies overnight at 4 °C, including Cyclin B1 (1:2000, Proteintech, China), CDK1 (1:5000, Proteintech, China), BAX (1:5000, Proteintech, China), Bcl2 (1:1000, Proteintech, China), Caspase 9/p35/p10 (1:1000, Proteintech, China), and β-actin (1:20 000, Proteintech, China). […] The protein signals were detected by using chemiluminescent reagents kit (NCM Biotech, China) and visualised with ChemiDocImaging System (Tanon 5200, China). Protein expressions was quantified by using Fiji/ImageJ software.
A general note: A western blot detects proteins with antibodies after separation by electrophoresis.

For assay [4], the system named is Bax. Description: Western blot assay, Bax. The format is cell-based, human. As to conditions: PC-3 cells. On the procedure:
(§2) The expression of cell apoptosis-related proteins (Bax, Bcl-2, and cleaved caspase-9) after treatment of 4k and 5a was also measured by western blot assay.
as §1

Assay [5] relates to Bcl-2. The assay can be described thus: Western blot assay, Bcl-2. The format is cell-based, human. To be noted: PC-3 cells. The protocol:
as §2, §1

The test system of assay [6] is cleaved caspase-9. The assay can be described thus: Western blot assay, cleaved caspase-9. Format: cell-based, human. To be noted: PC-3 cells, dose-dependent manner. On the procedure:
as §2, §1

In assay [7] the test system is PC-3 cell line. Description: MTT cell viability after 24 h. Format: cell-based. To be noted: Homo sapiens, read-out: cell viability. The protocol: An MTT assay was made on PC-3 cell line to test the cell viability after treated with different concentrations of compounds 4k and 5a after 24 h which was the same period as immunofluorescence assay.
The test system of assay [8] is PC-3 cells. The assay can be described thus: Cell apoptosis analysis, Annexin V-FITC/PI flow cytometry. To be noted: 48 h. The format is cell-based, human. The protocol:
To investigate the effect of 4k and 5a on cell apoptosis, flow cytometry was used to analyse the cell apoptosis of PC-3 cells. […] Early apoptosis cells could only be stained by Annexin V-FITC, while late apoptosis cells could be stained by both Annexin V-FITC and PI.
PC-3 cells in logarithmic phase were harvested and seeded onto 6-well cell plates at a density of 2.5 × 10^5 cells per well, and were cultured for 24 h. […] The cells were digested using trypsin and were harvested, washed twice with PBS, and resuspended in 500 μL binding buffer, followed by the addition of 100 μL of the cell suspension to 5 μL of Annexin V-FITC and 5 μL of PI. After stained for 15 min in a dark at room temperature, the samples were added 400 μL of binding buffer and detected by FACScan flow cytometry (BectoneDickinson, Franklin Lakes, NJ, USA).
Background: A flow cytometer gives signals particle by particle.

The test system of assay [9] is PC-3 cells. The assay can be described thus: Wound healing assay. Format: cell-based, human. To be noted: 24 h, control group 48.7%. On the procedure:
To investigate the effect of 4k and 5a on cell migration, wound healing assay was used on PC-3 cells.
PC-3 cells in logarithmic phase were harvested and seeded onto 12-well cell plates at a density of 2.5 × 10^5 cells per well, and were cultured for 24 h. Scratches were made in confluent monolayers using 200 μL pipette tip, and the cells were washing twice with PBS to remove all the non-adherent cells. […] Images of wounds were taken at 0 h and 24 h and analysed by Fiji/ImageJ software.

The test system of assay [10] is PC-3 cells. Description: Colony formation assay. As to conditions: PC-3, 20 nM, 24 h treatment then one week culture. Format: cell-based, human. An excerpt:
Colony formation assay was selected to assess the effect of 4k and 5a on clonogenic formation of PC-3 cells.
PC-3 cells in logarithmic phase were harvested and seeded onto 12-well cell plates at a density of 1 × 10^3 cells per well. […] Then the medium was removed, and cells were washed with PBS and added fresh medium containing 10% FBS. The cells were continued to culture for one week. The medium was removed, and the cells were fixed with 4% paraformaldehyde and subsequently stained with crystal violet solution. Images were taken and analysed by Fiji/ImageJ software.

Like-named read-outs stand apart in the source and are kept apart here.

For the compound `COc1cc(C2=NCC(=O)Nc3cn(-c4ccccc4)nc32)cc(OC)c1OC` [5a, 2-Phenyl-8–(3,4,5-trimethoxyphenyl)-2,6-dihydropyrazolo[4,3-e][1,4]diazepin-5(4H)-one], the IC50 in assay [1] (72 h) was determined as 0.86 ± 0.229 µM. In addition, the SI-H in assay [1] was determined as 147.7. The “proportion of cells in G2/M phase” value is 35% in assay [2] (70 nM) and 71% in [2] (100 nM). Also, the “level of Cyclin B1” value in assay [3] is reported as “increase”. Besides, the “expression of Bax” value in assay [4] (western blot, 10, 20, 40 nM) was “significantly increased”. Besides, in assay [5] (western blot, 5, 20, 40 nM), the “expression of Bcl-2” value is reported as “significantly decreased”. In addition, the “level of cleaved caspase-9” value in [6] is “increase”. In [7] (PC-3, 24 h), the viability at 0.00051 µM turned out to be 76.6%. The viability at 1.111 µM in assay [7] (PC-3, 24 h) worked out at 39.6%. Further, the “percentage of apoptosis cells” value came to 26.6% in assay [8] (PC-3, 100 nM, vehicle 18.2%) and 41.5% in assay [8] (PC-3, 200 nM, vehicle 18.2%). Moreover, the “recover percentage of scratches” value amounted to 32.3% in [9] (PC-3, 10 nM) and 23.3% in [9] (PC-3, 20 nM). Besides, the “colony formation compared to control” value in assay [10] is listed as 34.9%.
As for `COc1cc(C(=O)c2nn(-c3ccc(N)cc3)cc2N)cc(OC)c1OC` [4k, (4-amino-1–(4-aminophenyl)-1H-pyrazol-3-yl)(3,4,5-trimethoxyphenyl)methanone], the IC50 in assay [1] (72 h drug exposure, MTT assay, normal cells) was determined as 0.57 ± 0.167 µM. In assay [1], the SI-H worked out at 39.11. For the same compound, the “proportion of cells in G2/M phase” value in [2] (10–40 nM) is 33–71%. Further, the “level of Cyclin B1” value in assay [3] was “increase”. For the same compound, in assay [4] (western blot, 20, 40 nM), the “expression of Bax” value is on record as “significantly increased”. Moreover, the “expression of Bcl-2” value in assay [5] (western blot, 10, 20, 40 nM) was “significantly decreased”. Besides, the “level of cleaved caspase-9” value in assay [6] is on record as “increase”. The viability at 0.00051 µM in assay [7] (PC-3, MTT, 24 h, 0.51 nM) is 91.6%. Also, the viability at 1.111 µM in assay [7] (PC-3, MTT, 24 h, 1111 nM) was determined as 41.6%. Moreover, the “percentage of apoptosis cells” value in [8] (PC-3, 10 nM, vehicle 18.3%) was 27.1%; in [8] (PC-3, 25 nM, vehicle 18.3%), 34.1%. The “recover percentage of scratches” value stood at 42.7% in [9] (PC-3, 10 nM) and 20.2% in assay [9] (PC-3, 20 nM). Also, the “colony formation compared to control” value in assay [10] stood at 5.7%.
